Measured values: patent US8962623B2, “Aminopyrazine compounds” (Locus Pharmaceuticals, Inc., priority 2011, dated 2015)

Legend:
Lck = Lck (Homo sapiens, UniProt P06239); experiment: Inhibitory activity to Lck (similar procedure); format: biochemical; details: selectivity ratio
Experimental: Study of inhibitory activity to Lck was performed in similar procedure above described.
(§1) Study of inhibitory activity to other various kinases (e.g. Lck, InsR, Btk) was performed in similar procedure above described.

Itk = molecular target: T1, Itk (Homo sapiens, UniProt Q08881); experiment: Itk in vitro inhibitory activity in radioassay (33P incorporation into Phospholipase C-γ-1); format: biochemical; details: 20 μM ATP solution, read-out: IC50 over Itk
T1 construct: purchased Invitrogen
T1 sequence (Q08881 1-620): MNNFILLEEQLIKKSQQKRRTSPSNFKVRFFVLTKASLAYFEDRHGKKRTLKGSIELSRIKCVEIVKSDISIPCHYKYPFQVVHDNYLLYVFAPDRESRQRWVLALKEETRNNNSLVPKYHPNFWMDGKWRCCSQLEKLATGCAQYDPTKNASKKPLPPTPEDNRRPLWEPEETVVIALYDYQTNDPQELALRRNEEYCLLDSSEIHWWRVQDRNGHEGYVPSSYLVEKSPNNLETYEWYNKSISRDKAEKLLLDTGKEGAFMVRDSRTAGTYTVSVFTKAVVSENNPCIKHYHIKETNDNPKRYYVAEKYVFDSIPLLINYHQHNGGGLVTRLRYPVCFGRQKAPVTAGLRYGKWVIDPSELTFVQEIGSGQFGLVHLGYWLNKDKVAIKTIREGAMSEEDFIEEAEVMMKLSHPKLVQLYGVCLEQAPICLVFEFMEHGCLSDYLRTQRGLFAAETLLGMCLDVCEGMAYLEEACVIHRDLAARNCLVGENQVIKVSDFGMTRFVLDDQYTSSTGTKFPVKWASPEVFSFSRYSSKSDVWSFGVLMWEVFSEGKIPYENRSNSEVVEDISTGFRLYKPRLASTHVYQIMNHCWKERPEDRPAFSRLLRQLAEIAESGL
Experimental: The Itk protein kinase activity (Invitrogen) was determined by measuring the incorporation of ^33P from γ-[^33P] ATP into the Phospholipase C-γ-1 substrate (Calbiochem). The dilution series of the compound of the present invention were dissolved in DMSO. The diluted solution (1 μl) of the compounds of the present invention in DMSO was added to a 96-well assay plate. Additionally, Itk kinase solution (39 μL) composed of 3.2 nM Itk (Invitrogen) in reaction buffer (12.5 mM Tris (pH 7.5), 0.01% Triton X-100, 5% glycerol, 10 mM MgCl2, 1 mM EGTA, 5 mM glycerol 2-phosphate, 2 mM DTT and 0.5 mM sodium orthovanadate) was added to the assay plates. The solution was pre-incubated for 20 minutes at 30° C. with shaking. Then ATP/substrate solution (10 μl) composed of […] Phospholipase C-γ-1 (Calbiochem), 1.5% v/v γ-^33P-ATP (PerkinElmer), 20 μM ATP and reaction buffer was added. After incubating at 30° C. with shaking for 70 minutes, the reaction was stopped by adding 10 μl of 0.6 M phosphoric acid to each well. The each reaction from the assay plate was transferred and captured on a phosphocellulose 96-well plate (Millipore MAPHNOB). The reaction mixture was analyzed on the PerkinElmer TopCount NXT HTS 96-well Liquid Scintillation counter.
Inhibition rate (%) of the compound was calculated with the following formula: Inhibition rate(%)={1−(Bx−B100)/(B0−B100)}×100
BX: average counts for the compound
B100: average counts for 100% inhibition control (i.e., no enzyme, no compound)
B0: average counts for 0% inhibition control (i.e., no compound)
The value of 50% inhibition rate (IC50) for the compound was defined as the concentration of the test compound that caused a 50% decrease in the maximum inhibition. IC50 values were calculated from replicate curves by non-linear regression using the sigmoidal dose-response equation in GraphPad Prism software.

InsR = InsR (Homo sapiens, UniProt P06213); experiment: Inhibitory activity to InsR (similar procedure); format: biochemical; details: selectivity ratio
Experimental: as §1

Btk = Btk (Homo sapiens, UniProt Q06187); experiment: Inhibitory activity to Btk (similar procedure); format: biochemical; details: selectivity ratio
Experimental: as §1

[1] = tested on: IL-2 production in mouse whole blood; experiment: Mouse whole blood IL-2 assay; format: cell-based, BALB/c mouse; details: anti-CD3/anti-CD28 stimulation, 18 hours, IL-2 by ELISA
Experimental: The dilution series of the compound of the present invention in DMSO were further diluted by addition of RPMI1640 medium (Invitrogen). The diluted compound solution (6.5 μl) was added to a 96-well plate. BALB/c mouse heparinized peripheral blood was diluted 1:2 in RPMI1640, and added 123.5 μl of the diluted blood to the compound plate. The blood samples were pre-incubated at 37° C. for 30 minutes. Anti-CD3 and anti-CD28 antibody mixture (6 μl; 20 μg/mL each) was spotted into a 96 well assay plates. Pre-treated blood samples (114 μl) were added to each well and the plate was incubated for 18 hours at 37° C. in 5% CO2. After the incubation, supernatants were collected by centrifugation at 300×g for 10 min. IL-2 concentration was determined by ELISA method. The inhibition rate (%) of the compound was calculated with the following formula: Inhibition rate(%)={1−(Cx−C100)/(C0−C100)}×100
CX: IL-2 concentration for the compound
C100: IL-2 concentration for 100% inhibition control (i.e., no stimulation, no compound)
C0: IL-2 concentration for 0% inhibition control (i.e., no compound)
The value of 50% inhibition rate (IC50) for the compound was determined from inhibition curve based on inhibition rate at each concentration of the compound of the present invention.

Lck, sequence (P06239 whole entry, species assumed): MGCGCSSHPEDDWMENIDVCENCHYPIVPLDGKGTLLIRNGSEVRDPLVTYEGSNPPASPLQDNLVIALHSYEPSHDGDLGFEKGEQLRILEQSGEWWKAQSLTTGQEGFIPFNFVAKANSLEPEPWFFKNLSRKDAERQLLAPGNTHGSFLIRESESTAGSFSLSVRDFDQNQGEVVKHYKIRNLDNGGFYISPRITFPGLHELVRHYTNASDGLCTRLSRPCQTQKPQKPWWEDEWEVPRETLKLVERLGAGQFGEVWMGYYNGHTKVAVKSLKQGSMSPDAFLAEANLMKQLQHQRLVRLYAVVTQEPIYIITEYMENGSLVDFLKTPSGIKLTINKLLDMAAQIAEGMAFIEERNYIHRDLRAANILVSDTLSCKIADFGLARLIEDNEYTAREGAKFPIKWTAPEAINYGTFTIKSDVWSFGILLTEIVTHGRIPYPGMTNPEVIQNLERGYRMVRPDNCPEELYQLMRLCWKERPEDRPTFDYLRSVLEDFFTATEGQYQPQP
Btk, sequence (Q06187 whole entry, species assumed): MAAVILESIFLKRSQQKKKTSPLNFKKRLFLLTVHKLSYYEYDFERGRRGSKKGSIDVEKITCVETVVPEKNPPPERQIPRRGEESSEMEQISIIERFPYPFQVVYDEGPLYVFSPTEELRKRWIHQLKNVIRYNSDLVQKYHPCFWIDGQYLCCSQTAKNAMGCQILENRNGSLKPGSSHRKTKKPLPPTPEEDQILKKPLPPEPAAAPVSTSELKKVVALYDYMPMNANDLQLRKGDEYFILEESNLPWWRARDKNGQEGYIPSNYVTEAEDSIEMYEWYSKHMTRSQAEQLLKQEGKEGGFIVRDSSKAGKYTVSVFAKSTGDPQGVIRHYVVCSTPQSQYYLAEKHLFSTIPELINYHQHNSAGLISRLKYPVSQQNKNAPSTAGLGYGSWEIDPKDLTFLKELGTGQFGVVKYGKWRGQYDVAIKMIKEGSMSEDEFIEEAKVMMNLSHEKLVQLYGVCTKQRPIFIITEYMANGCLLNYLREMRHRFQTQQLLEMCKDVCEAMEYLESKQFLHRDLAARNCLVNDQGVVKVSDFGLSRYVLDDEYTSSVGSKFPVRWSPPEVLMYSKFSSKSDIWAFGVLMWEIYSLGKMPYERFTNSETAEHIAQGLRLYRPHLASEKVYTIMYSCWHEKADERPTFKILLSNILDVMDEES
InsR, sequence (P06213 28-1382, species assumed): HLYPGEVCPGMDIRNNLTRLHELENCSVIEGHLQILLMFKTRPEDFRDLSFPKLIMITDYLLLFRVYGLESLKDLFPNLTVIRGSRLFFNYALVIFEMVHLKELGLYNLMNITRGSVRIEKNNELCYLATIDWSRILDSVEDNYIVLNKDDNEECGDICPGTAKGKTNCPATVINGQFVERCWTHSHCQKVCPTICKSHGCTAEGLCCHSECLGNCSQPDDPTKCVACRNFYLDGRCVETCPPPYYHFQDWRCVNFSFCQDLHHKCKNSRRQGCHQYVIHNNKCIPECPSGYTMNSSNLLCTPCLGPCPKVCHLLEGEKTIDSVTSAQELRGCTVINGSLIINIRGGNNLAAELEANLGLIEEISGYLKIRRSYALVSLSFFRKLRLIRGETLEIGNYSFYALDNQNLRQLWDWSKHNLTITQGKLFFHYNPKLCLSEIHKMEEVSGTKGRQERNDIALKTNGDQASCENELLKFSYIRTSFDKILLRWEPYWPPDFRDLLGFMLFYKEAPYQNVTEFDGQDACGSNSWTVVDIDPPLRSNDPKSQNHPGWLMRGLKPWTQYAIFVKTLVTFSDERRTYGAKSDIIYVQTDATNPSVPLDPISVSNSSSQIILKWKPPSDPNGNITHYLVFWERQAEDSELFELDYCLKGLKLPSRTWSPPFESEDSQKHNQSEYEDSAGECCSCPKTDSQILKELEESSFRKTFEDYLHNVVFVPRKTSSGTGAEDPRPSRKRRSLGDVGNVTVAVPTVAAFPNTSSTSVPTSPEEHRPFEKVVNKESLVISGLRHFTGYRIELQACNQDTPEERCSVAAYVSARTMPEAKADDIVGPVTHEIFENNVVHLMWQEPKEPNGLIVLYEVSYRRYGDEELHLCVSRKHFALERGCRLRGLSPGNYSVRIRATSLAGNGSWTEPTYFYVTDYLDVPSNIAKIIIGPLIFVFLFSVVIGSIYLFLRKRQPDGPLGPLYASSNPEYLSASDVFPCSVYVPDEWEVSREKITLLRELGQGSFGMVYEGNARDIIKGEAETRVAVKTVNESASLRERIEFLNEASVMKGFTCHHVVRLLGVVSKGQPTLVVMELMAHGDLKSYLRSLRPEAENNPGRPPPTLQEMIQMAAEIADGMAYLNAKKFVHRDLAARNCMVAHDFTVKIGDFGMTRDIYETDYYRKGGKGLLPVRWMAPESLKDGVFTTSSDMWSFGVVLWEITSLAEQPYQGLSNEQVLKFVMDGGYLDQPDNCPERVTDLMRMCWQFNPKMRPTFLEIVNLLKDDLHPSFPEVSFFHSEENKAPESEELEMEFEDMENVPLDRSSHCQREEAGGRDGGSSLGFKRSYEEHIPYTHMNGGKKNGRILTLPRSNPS

Structure (SMILES) | Lck[IC50]/Itk[IC50] (Lck) | IC50 (Itk) [nM] | InsR[IC50]/Itk[IC50] (InsR) | Btk[IC50]/Itk[IC50] (Btk) | IC50 [1] [nM]
COC1CN(c2cccc(-c3cnc(N)c(-c4ccc(NC(=O)c5c(C)n(C)n(-c6cccc(Cl)c6)c5=O)cc4)n3)n2)C1 [Example 14(12), N-(4-{3-amino-6-[6-(3-methoxy-1-azetidinyl)-2-pyridinyl]-2-pyrazinyl}phenyl)-2-(3-chlorophenyl)-1,5-dimethyl-3-oxo-2,3-dihydro-1H-pyrazole-4-carboxamide] | 185 | 2 | 1400 | >500 | –
COC1CCN(c2cccc(-c3cnc(N)c(-c4ccc(NC(=O)c5c(C)n(C)n(-c6cccc(C)c6)c5=O)cc4)n3)n2)CC1 [Example 17(11), N-(4-{3-amino-6-[6-(4-methoxy-1-piperidinyl)-2-pyridinyl]-2-pyrazinyl}phenyl)-1,5-dimethyl-2-(3-methylphenyl)-3-oxo-2,3-dihydro-1H-pyrazole-4-carboxamide] | >300 | 1 | >300 | >1000 | –
Cc1c(C(=O)Nc2ccc(-c3nc(-c4cccc(N5CCOCC5)n4)cnc3N)cc2)c(=O)n(-c2ccccc2)n1C [Example 7(6), N-(4-{3-amino-6-[6-(4-morpholinyl)-2-pyridinyl]-2-pyrazinyl}phenyl)-1,5-dimethyl-3-oxo-2-phenyl-2,3-dihydro-1H-pyrazole-4-carboxamide] | 85 | 2 | 100 | >200 | –

Next, values leading:

Lck[IC50]/Itk[IC50] (Lck) | IC50 (Itk) [nM] | InsR[IC50]/Itk[IC50] (InsR) | Btk[IC50]/Itk[IC50] (Btk) | IC50 [1] [nM] | Structure (SMILES)
>360 | 1 | >1000 | >1000 | 350 | Cc1c(C(=O)Nc2ccc(-c3nc(-c4ccnc(N5CCOCC5)c4)cnc3N)nc2)c(=O)n(-c2cccc(Cl)c2)n1C [Example 29(2), N-(6-{3-amino-6-[2-(4-morpholinyl)-4-pyridinyl]-2-pyrazinyl}-3-pyridinyl)-2-(3-chlorophenyl)-1,5-dimethyl-3-oxo-2,3-dihydro-1H-pyrazole-4-carboxamide]
– | 4 | – | – | – | COc1cccc(-n2c(=O)c(C(=O)Nc3ccc(-c4nc(-c5ccnc(N6CC(OC)C6)c5)cnc4N)nc3)c(C)n2C)c1 [Example 29(33), N-(6-{3-amino-6-[2-(3-methoxy-1-azetidinyl)-4-pyridinyl]-2-pyrazinyl}-3-pyridinyl)-2-(3-methoxyphenyl)-1,5-dimethyl-3-oxo-2,3-dihydro-1H-pyrazole-4-carboxamide]
